The values that follow come from patent US11298367B2, “Prodrugs of substituted triazole derivatives and uses thereof” (Bayer Aktiengesellschaft, priority 2017, dated 2022).

In one data set the target is T1, human V1a receptor (Homo sapiens, UniProt P37288).
T1 construct: expressed in transfected cells; host or cells: CHO K1 (Chinese hamster ovary), also stably transfected with a modified aequorin
Briefly: Cellular in vitro assay for vasopressin receptor activity (V1a, aequorin luminescence). The class given is cell-based. As to conditions: for IC50: CHO cell line with human V1a receptor, [Arg8]-vasopressin at EC50, values are for the prodrug as such, read-out: IC50 hV1a; for ratio IC50 hV2/hV1a: selectivity ratio hV2/hV1a. As for the experimental part: (§1) B-1. Cellular In Vitro Assay for Determining Vasopressin Receptor Activity
(§2) The identification of agonists and antagonists of the V1a and V2 vasopressin receptors from humans, rats and dogs as well as the quantification of the activity of the compounds of the invention is carried out using recombinant cell lines. These cell lines originally derive from a hamster's ovary epithelial cell (Chinese Hamster Ovary, CHO K1, ATCC: American Type Culture Collection, Manassas, Va. 20108, USA). The test cell lines constitutively express the human, rat or dog V1a or V2 receptors. In case of the Gaq-coupled V1a receptors, cells are also stably transfected with a modified form of the calcium-sensitive photoproteins aequorin (human and rat V1a) or obelin (dog V1a), which, after reconstitution with the cofactor coelenterazine, emit light when there are increases in free calcium concentrations [Rizzuto R, Simpson A W, Brini M, Pozzan T, Nature 358, 325-327 (1992); Illarionov B A, Bondar V S, Illarionova V A, Vysotski E S, Gene 153 (2), 273-274 (1995)]. The resulting vasopressin receptor cells react to stimulation of the recombinantly expressed Via receptors by intracellular release of calcium ions, which can be quantified by the resulting photoprotein luminescence. The Gs-coupled V2 receptors are stably transfected into cell lines expressing the gene for firefly luciferase under control of a CRE-responsible promoter. Activation of V2 receptors induces the activation of the CRE-responsive promoter via cAMP increase, thereby inducing the expression of firefly luciferase. The light emitted by photoproteins of V1a cell lines as well as the light emitted by firefly luciferase of V2 cell lines corresponds to the activation or inhibition of the respective vasopressin receptor. The bioluminescence of the cell lines is detected using a suitable luminometer [Milligan G, Marshall F, Rees S, Trends in Pharmacological Sciences 17, 235-237 (1996)].
Vasopressin V1a Receptor Cell Lines:
On the day before the assay, the cells are plated out in culture medium (DMEM/F12, 2% FCS, 2 mM glutamine, 10 mM HEPES, 5 μg/ml coelenterazine) in 384-well microtiter plates and kept in a cell incubator (96% humidity, 5% v/v CO2, 37C). On the day of the assay, test compounds in various concentrations are placed for 10 minutes in the wells of the microtiter plate before the agonist [Arg^8]-vasopressin at EC50 concentration is added. The resulting light signal is measured immediately in a luminometer.
(§3) Table 1A below lists individual IC50 values for the compounds of the invention (including racemic mixtures as well as separated enantiomers) that were obtained from cell lines transfected with the human V1a or V2 receptor. This means these IC50 values are the values for the prodrug and not for the underlying respective drug as the prodrug is mainly stable under the assay conditions.

A short description of another data set: Solubility. In kind it is physicochemical. Conditions: 24 h room temperature, max. 500 μg/ml; for solubility at 24 h: thermodynamic from solid. The method, then: For each substance 0.5-0.6 mg are weighed exactly. In each case, sufficient medium is added to the sample in such a way that a concentration of c=500 μg/ml is obtained. This sample solution is shaken for 24 h at room temperature and 1400 rpm.
A further sample weight of 0.5-0.6 mg is required for the DMSO calibration solution. This sample is filled with DMSO to a concentration of c=600 μg/ml. Two calibration solutions are prepared from this stock solution. In a 2 ml HPLC vial, 1000 μl of DMSO are initially introduced and 34.4 μl of the stock solution are pipetted (c=20 µg/ml). […] of this solution (c=20 μg/ml) are placed in a further 2 ml HPLC vial containing 500 μl of DMSO (c=2.5 μg/ml).
After shaking the test solutions, 230 μl of the supernatant are transferred into a centrifuge tube and centrifuged at 42 000 rpm (223 000 g) for 30 min. 180 μl of the supernatant are then taken and each diluted with DMSO (1:5 sample 1; 1:100 sample 2), and transferred to HPLC vials. The two calibration solutions and the dilute sample solutions are analyzed by HPLC. Quantification is performed over the corresponding peak areas.
Distilled water; trifluoroacetic acid (Merck; 1.08262.0100); acetonitrile (HPLC grade); DMSO (Merck; 8.02912.2500).
Fluka buffer, Order No. 33643 (11.76 g citric acid, 2.57 g sodium chloride and 2.72 g sodium hydroxide).
Fluka buffer, Order No. 33646 (3.52 g potassium dihydrogenphosphate, 7.26 g sodium hydrogen phosphate).
Solution of 6.18 g sodium chloride and 3.96 g sodium dihydrogen phosphate in 1 L distilled water, adjust with 1M aqueous sodium hydroxide solution to pH 7.4.
0.6057 g TRIS was dissolved in 95 ml water, adjust to pH 8.5 with aqueous hydrochloric acid, fill with water until 100 ml volume is reached.

The next data set concerns the target T2, human V2 receptor (Homo sapiens, UniProt P30518).
T2 construct: expressed in transfected cells; host or cells: CHO K1 cells expressing firefly luciferase under a CRE-responsive promoter
Description: Cellular in vitro assay for vasopressin receptor activity (V2, CRE-luciferase). In kind it is cell-based. Conditions: CHO cell line with human V2 receptor, [Arg8]-vasopressin at EC50; values are for the prodrug as such; read-out: IC50 hV2. As for the experimental part: as §1, §2
Vasopressin V2 Receptor Cell Lines:
On the day before the assay, the cells are plated out in culture medium (DMEM/F12, 2% FCS, 2 mM glutamine, 10 mM HEPES) in 384-well microtiter plates and kept in a cell incubator (96% humidity, 5% v/v CO2, 37C). On the day of the assay, test compounds in various concentrations and the agonist [Arg^8]-vasopressin at EC50 concentration are added together to the wells, and plates are incubated for 3 hours in a cell incubator. Upon addition of the cell lysis reagent Triton™ and the substrate luciferin, luminescence of firefly luciferase is measured in a luminometer.
as §3

Setting [1] is: PBS buffer pH 7.4, pH 7.4, aqueous buffer, pH = 7.4 PBS buffer.
Where [2] appears, read: Tris buffer pH 8.5, pH 8.5, aqueous buffer, pH = 8.5 Tris buffer.
The mark [3] stands for this setting: citrate buffer pH 4, pH 4, aqueous buffer, pH = 4 citrate buffer.

T2 sequence (P30518 whole entry): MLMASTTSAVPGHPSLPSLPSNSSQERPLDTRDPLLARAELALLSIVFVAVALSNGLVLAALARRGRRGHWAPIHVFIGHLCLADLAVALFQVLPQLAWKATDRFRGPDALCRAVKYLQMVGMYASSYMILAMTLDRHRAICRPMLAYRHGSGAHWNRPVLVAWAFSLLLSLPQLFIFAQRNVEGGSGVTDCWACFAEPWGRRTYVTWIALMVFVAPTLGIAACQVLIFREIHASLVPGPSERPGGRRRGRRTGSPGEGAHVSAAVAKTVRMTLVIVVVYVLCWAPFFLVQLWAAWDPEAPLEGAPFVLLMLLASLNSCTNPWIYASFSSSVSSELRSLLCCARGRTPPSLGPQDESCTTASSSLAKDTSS
T1 sequence (P37288 whole entry): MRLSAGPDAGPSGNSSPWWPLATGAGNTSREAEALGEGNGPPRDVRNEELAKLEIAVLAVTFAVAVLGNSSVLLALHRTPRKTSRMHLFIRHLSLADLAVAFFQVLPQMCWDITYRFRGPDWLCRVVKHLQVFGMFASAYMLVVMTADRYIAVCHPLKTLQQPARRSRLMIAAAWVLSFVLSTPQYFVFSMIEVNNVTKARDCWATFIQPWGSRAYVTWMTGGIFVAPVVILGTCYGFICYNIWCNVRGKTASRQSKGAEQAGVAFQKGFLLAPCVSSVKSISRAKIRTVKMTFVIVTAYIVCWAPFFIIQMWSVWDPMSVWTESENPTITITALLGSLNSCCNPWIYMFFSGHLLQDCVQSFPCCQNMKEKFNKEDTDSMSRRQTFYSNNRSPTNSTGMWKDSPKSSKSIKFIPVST

In the case of `NC(=O)c1nc(Cn2nc(-c3ccc(Cl)cc3)n(C[C@H](OP(=O)([O-])O)C(F)(F)F)c2=O)nn1-c1ncccc1C(F)(F)F.[Na+]` [Example 4, Sodium (2S)-3-[1-({5-carbamoyl-1-[3-(trifluoromethyl)pyridin-2-yl]-1H-1,2,4-triazol-3-yl}-methyl)-3-(4-chlorophenyl)-5-oxo-1,5-dihydro-4H-1,2,4-triazol-4-yl]-1,1,1-trifluoropropan-2-yl Hydrogen Phosphate], the IC50 at human V1a receptor was determined as 11.1 nM; on human V2 receptor it was 150 nM. In addition, at human V1a receptor (Phosphate), the “ratio IC50 hV2/hV1a” value is 13.5. Also, the solubility at 24 h in “Solubility” (setting [1]), in “Solubility” (setting [2]) and in the data set “Solubility” (setting [3]) was > 500 µg/mL each time.

As to `NC(=O)c1nc(Cn2nc(-c3ccc(Cl)cc3)n(C[C@H](OP(=O)([O-])O)C(F)(F)F)c2=O)nn1-c1ncccc1C(F)(F)F.[Li+]` [Example 6, Lithium (2S)-3-[1-({5-carbamoyl-1-[3-(trifluoromethyl)pyridin-2-yl]-1H-1,2,4-triazol-3-yl}-methyl)-3-(4-chlorophenyl)-5-oxo-1,5-dihydro-4H-1,2,4-triazol-4-yl]-1,1,1-trifluoropropan-2-yl Hydrogen Phosphate], the IC50 at human V1a receptor stood at 15.5 nM; on human V2 receptor it was 220 nM. The “ratio IC50 hV2/hV1a” value on human V1a receptor (Phosphate) is on record as 14.2. The solubility at 24 h in “Solubility” (setting [1]) is 464 µg/mL; in “Solubility” (setting [2]), 464 µg/mL; in “Solubility” (setting [3]), > 500 µg/mL.

Take `NC(=O)c1nc(Cn2nc(-c3ccc(Cl)cc3)n(C[C@H](OP(=O)([O-])O)C(F)(F)F)c2=O)nn1-c1ncccc1C(F)(F)F.[Li+]` [Example 7, Lithium (2S)-3-[1-({5-carbamoyl-1-[3-(trifluoromethyl)pyridin-2-yl]-1H-1,2,4-triazol-3-yl}-methyl)-3-(4-chlorophenyl)-5-oxo-1,5-dihydro-4H-1,2,4-triazol-4-yl]-1,1,1-trifluoropropan-2-yl Hydrogen Phosphate]: the IC50 at human V1a receptor is 8.85 nM; at human V2 receptor, 160 nM. Besides, the “ratio IC50 hV2/hV1a” value on human V1a receptor (Phosphate) was 18.1. Further, the Solubility is >500 µg/mL in “Solubility” (pH = 4 citrate buffer); >500 µg/mL in the data set “Solubility” (pH = 7.4 PBS buffer, Phosphate); >500 µg/mL in the data set “Solubility” (pH = 8.5 Tris buffer, Phosphate).

Consider `NC(=O)c1nc(Cn2nc(-c3ccc(Cl)cc3)n(C[C@H](OP(=O)([O-])[O-])C(F)(F)F)c2=O)nn1-c1ncccc1C(F)(F)F.[Mg+2]` [Example 9, Magnesium (2S)-3-[1-({5-carbamoyl-1-[3-(trifluoromethyl)pyridin-2-yl]-1H-1,2,4-triazol-3-yl}-methyl)-3-(4-chlorophenyl)-5-oxo-1,5-dihydro-4H-1,2,4-triazol-4-yl]-1,1,1-trifluoropropan-2-yl Phosphate], for which the IC50 at human V1a receptor came out at 14 nM; at human V2 receptor, 225 nM. In addition, the “ratio IC50 hV2/hV1a” value at human V1a receptor came to 16.1. The solubility at 24 h was > 500 µg/mL in “Solubility” (setting [1]), 447 µg/mL in “Solubility” (setting [2]) and > 500 µg/mL in “Solubility” (setting [3]).

`NC(=O)c1nc(Cn2nc(-c3ccc(Cl)cc3)n(C[C@H](OP(=O)([O-])O)C(F)(F)F)c2=O)nn1-c1ncccc1Cl.[Na+]` [Example 20, Sodium (2S)-3-[1-{[5-carbamoyl-1-(3-chloropyridin-2-yl)-1H-1,2,4-triazol-3-yl]methyl}-3-(4-chlorophenyl)-5-oxo-1,5-dihydro-4H-1,2,4-triazol-4-yl]-1,1,1-trifluoropropan-2-yl Hydrogen Phosphate]: the IC50 on human V1a receptor came out at 39.5 nM; at human V2 receptor, 85.5 nM. At human V1a receptor (Phosphate), the “ratio IC50 hV2/hV1a” value was found to be 2.2. Also, the solubility at 24 h in “Solubility” (setting [1]), in “Solubility” (setting [2]) and in “Solubility” (setting [3]) was > 500 µg/mL in each case.

For the molecule `NC(=O)c1nc(Cn2nc(-c3ccc(Cl)cc3)n(C[C@H](OP(=O)([O-])O)C(F)(F)F)c2=O)nn1-c1ncccc1Cl.[Na+]` [Example 21, Sodium (2S)-3-[1-{[5-carbamoyl-1-(3-chloropyridin-2-yl)-1H-1,2,4-triazol-3-yl]methyl}-3-(4-chlorophenyl)-5-oxo-1,5-dihydro-4H-1,2,4-triazol-4-yl]-1,1,1-trifluoropropan-2-yl Hydrogen Phosphate], the IC50 at human V1a receptor stood at 21 nM; on human V2 receptor, 38 nM. For the same molecule, at human V1a receptor (Phosphate), the “ratio IC50 hV2/hV1a” value is 1.8.

`NC(=O)c1nc(Cn2nc(-c3ccc(Cl)cc3)n(C[C@H](OP(=O)([O-])[O-])C(F)(F)F)c2=O)nn1-c1ncccc1Cl.[Mg+2]` [Example 22, Magnesium (2S)-3-[1-{[5-carbamoyl-1-(3-chloropyridin-2-yl)-1H-1,2,4-triazol-3-yl]methyl}-3-(4-chlorophenyl)-5-oxo-1,5-dihydro-4H-1,2,4-triazol-4-yl]-1,1,1-trifluoropropan-2-yl Phosphate]: the IC50 on human V1a receptor worked out at 45 nM; on human V2 receptor, 90 nM. Also, the “ratio IC50 hV2/hV1a” value at human V1a receptor came to 2.0. For the same molecule, the solubility at 24 h in the data set “Solubility” (setting [1]), in the data set “Solubility” (setting [2]) and in “Solubility” (setting [3]) was > 500 µg/mL in each case.

As to `NC(=O)c1nc(Cn2nc(-c3ccc(Cl)cc3)n(C[C@H](OP(=O)([O-])[O-])C(F)(F)F)c2=O)nn1-c1ncccc1Cl.[Ca+2]` [Example 23, Calcium (2S)-3-[1-{[5-carbamoyl-1-(3-chloropyridin-2-yl)-1H-1,2,4-triazol-3-yl]methyl}-3-(4-chlorophenyl)-5-oxo-1,5-dihydro-4H-1,2,4-triazol-4-yl]-1,1,1-trifluoropropan-2-yl Phosphate], the values for the IC50 on human V1a receptor and at human V2 receptor were 27 nM and 73.5 nM, respectively. Besides, the “ratio IC50 hV2/hV1a” value at human V1a receptor was determined as 2.7.

The term IC50 denotes the point on the concentration scale where inhibition reaches its midpoint. In general, solubility refers to how much of the substance goes into solution per volume. A low value points to little dissolved substance. The term Solubility denotes the concentration that dissolves in the medium under given conditions. Read a high Solubility as much dissolved substance.
